# According to US11602521B2, “N,N-dimethyltryptamine compositions and methods” (ATAI Life Sciences AG, priority 2021, dated 2023):
# Like-named read-outs stand apart in the source and are kept apart here.
# Assay: DMT plasma concentration after a single SC injection of DMT succinate to rats
# Type: in vivo
# Conditions: for DMT plasma concentration: rats; for AUC0-24 hr/Dose / AUCTlast/Dose / Cmax/Dose / Tlast / AUC(0-t) / Tmax: Day 1, rats; for Cmax: both sexes, Day 1, rats males and females combined; for Cmax / AUC(0-t) / Tmax: rat, plasma; for AUC(0-t): sc
# Source text: Example 2: Study of DMT Succinate Administered Subcutaneously
# [1] = 5 mg/kg DMT succinate single SC
# [2] = 10 mg/kg DMT succinate single SC
smiles,measurement,setting,value
"CN(C)CCc1c[nH]c2ccccc12 [DMT, N,N-dimethyltryptamine]",DMT plasma concentration,"5 mg/kg DMT succinate SC, Time 0.5 h",228
same,DMT plasma concentration,"5 mg/kg DMT succinate SC, Time 1 h",202
same,DMT plasma concentration,"5 mg/kg DMT succinate SC, Time 2 h",27.1
same,DMT plasma concentration,"5 mg/kg DMT succinate SC, Time 4 h",0
same,DMT plasma concentration,"5 mg/kg DMT succinate SC, Time 8 h",0
same,DMT plasma concentration,"5 mg/kg DMT succinate SC, Time 12 h",0
same,DMT plasma concentration,"5 mg/kg DMT succinate SC, Time 24 h",0
same,AUC0-24 hr/Dose,[1],61.1 kg·ng·h/mL/mg
same,AUCTlast/Dose,[1],55.7 kg·ng·h/mL/mg
same,Cmax/Dose,[1],45.5 kg·ng/mL/mg
same,Tlast,[1],2 h
same,DMT plasma concentration,"10 mg/kg DMT succinate SC, Time 0.5 h",836
same,DMT plasma concentration,"10 mg/kg DMT succinate SC, Time 1 h",1260
same,DMT plasma concentration,"10 mg/kg DMT succinate SC, Time 2 h",1170
same,DMT plasma concentration,"10 mg/kg DMT succinate SC, Time 4 h",149
same,DMT plasma concentration,"10 mg/kg DMT succinate SC, Time 8 h",0.707
same,DMT plasma concentration,"10 mg/kg DMT succinate SC, Time 12 h",0
same,DMT plasma concentration,"10 mg/kg DMT succinate SC, Time 24 h",0
same,AUC0-24 hr/Dose,[2],143 kg·ng·h/mL/mg
same,AUCTlast/Dose,[2],142 kg·ng·h/mL/mg
same,Cmax/Dose,[2],50.5 kg·ng/mL/mg
same,Tlast,[2],8 h
same,Cmax,[1],228 ng/mL
same,Cmax,[2],1260 ng/mL
same,AUC(0-t),"5 mg/kg, 5 mg/kg DMT succinate single SC, read-out: AUC0-24 hr",306 ng·h/mL
same,AUC(0-t),"5 mg/kg, 5 mg/kg DMT succinate single SC, read-out: AUCTlast",278 ng·h/mL
same,AUC(0-t),"10 mg/kg, 10 mg/kg DMT succinate single SC, read-out: AUC0-24 hr",3560 ng·h/mL
same,AUC(0-t),"10 mg/kg, 10 mg/kg DMT succinate single SC, read-out: AUCTlast",3560 ng·h/mL
same,Tmax,[1],30 min
same,Tmax,[2],60 min
